Results taken from patent US8470889B2 (TRT Pharma Inc., priority 2008, dated 2013).
Read-outs that look alike come from different tables or passages of the source. Values belong to the molecule of their own block, whether it stands above or below them.

How the values were obtained:
MCF-7 cells = assay: Growth inhibition, MCF-7 breast cancer cells; type: cell-based; details: for IC50: Table 10, read-out: Cytotoxicity, IC50 (μM) MCF-7
Excerpt: (§1) All samples were in triplicate.

MDA-MB-231 cells = assay: Growth inhibition, MDA-MB-231 breast cancer cells; type: cell-based; details: for IC50: Table 10, read-out: Cytotoxicity, IC50 (μM) MDA-M B231
Excerpt: as §1

H-1975 cells = assay: Growth inhibition, H-1975 lung cancer cells; type: cell-based; details: for IC50: Table 10, read-out: Cytotoxicity, IC50 (μM) H-1975
Excerpt: as §1

wild-type human AR = target: T1, wild-type human AR (Homo sapiens, UniProt P10275); assay: Luciferase assay for AR transactivation, wild-type AR, PC-3 cells; type: cell-based; parameters: Antiandrogenic activity evaluated by luciferase assay in PC-3 cells WT: key to the marks not given beside the values; details: 0.1 nM DHT; for suppression of DHT-induced transactivation of wild-type AR: test compound 0.1-1 μM, PC-3 cells; for Antiandrogenic activity evaluated by luciferase assay in PC-3 cells WT: test compound 1 μM
T1 construct: utilizing plasmid expressing a full length of AR; expressed in transfected cells; host or cells: PC-3 cells, plasmid pCMV-AR-wt
T1 sequence (P10275 1-920): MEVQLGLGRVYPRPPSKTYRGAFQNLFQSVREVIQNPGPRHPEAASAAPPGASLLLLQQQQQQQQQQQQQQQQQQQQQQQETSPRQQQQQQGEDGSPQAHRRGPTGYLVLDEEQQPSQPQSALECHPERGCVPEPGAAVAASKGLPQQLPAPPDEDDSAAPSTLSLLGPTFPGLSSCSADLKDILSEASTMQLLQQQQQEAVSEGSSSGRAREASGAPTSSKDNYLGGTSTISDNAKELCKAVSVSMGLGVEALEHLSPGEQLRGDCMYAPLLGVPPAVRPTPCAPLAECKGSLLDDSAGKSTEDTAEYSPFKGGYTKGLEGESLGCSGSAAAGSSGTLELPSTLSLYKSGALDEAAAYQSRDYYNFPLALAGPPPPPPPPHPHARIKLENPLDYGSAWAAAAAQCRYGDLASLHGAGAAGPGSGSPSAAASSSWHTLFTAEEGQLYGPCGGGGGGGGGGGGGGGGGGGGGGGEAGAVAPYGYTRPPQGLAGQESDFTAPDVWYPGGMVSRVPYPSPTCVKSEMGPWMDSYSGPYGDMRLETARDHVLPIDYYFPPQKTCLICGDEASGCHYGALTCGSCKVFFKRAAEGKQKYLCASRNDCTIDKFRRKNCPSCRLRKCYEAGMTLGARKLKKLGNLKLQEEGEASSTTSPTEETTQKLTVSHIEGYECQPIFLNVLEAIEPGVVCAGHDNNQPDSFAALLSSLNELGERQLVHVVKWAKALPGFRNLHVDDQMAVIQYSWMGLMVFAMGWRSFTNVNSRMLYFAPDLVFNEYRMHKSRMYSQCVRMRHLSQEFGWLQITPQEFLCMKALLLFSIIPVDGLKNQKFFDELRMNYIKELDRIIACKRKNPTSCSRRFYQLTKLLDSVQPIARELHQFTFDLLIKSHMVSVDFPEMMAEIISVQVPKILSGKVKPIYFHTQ
Procedure: PC-3 cells were transiently transfected with pCMV-MMTV-Luc, Renilla null luciferase and AR expressing plasmids. The cells were treated with 0.1 nM DHT with and without test compound for 24 hr. Relative luciferase activity was determined by dual luciferase assay kit (Promega), standardized to Renilla luciferase control and normalized to 0.1 nM DHT without test compound (100%).
After 16 h, the cells were treated with 0.1 nM of DHT and test compounds at the designated concentration. After further 24 h, the cells were lysed in 100 μL/well passive lysis buffer, and 20 μL of the cell lysates was used for detection of the luciferase activity using Dual Luciferase Assay System (Promega). All experiments were run in triplicate. Relative luciferase activity is determined as the ratio of inducible firefly luciferase luminescence divided by the luminescence of the renilla luciferase control normalized to 0.1 nM DHT without test compounds.
The potency of antagonistic activity: ++>+.
PC-3 cells were transiently transfected with plasmid expressing wild type human AR and MMTV-Luc. […] RLU, relative luciferase units, were normalized to that of 0.1 nM DHT alone.

MDA PCa 2b cells [1] = test system: MDA PCa 2b cells;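 further: MDA PCa 2b prostate cancer cells in BRFF-HPC1 with 20% FBS, exposed to compounds for 72 h, viable-cell MTT formazan read as absorbance at 600 nm, 0.5% DMSO vehicle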
Procedure: (§2) MDA PCa 2b was seeded at the same density in medium BRFF-HPC1 (Athena Enzyme Systems, Baltimore, Md., USA) supplemented with 20% FBS. After overnight incubation, the medium was changed to a fresh medium containing different concentrations of test compounds diluted from stock DMSO solution. The final concentration of DMSO is 0.5%. After 72 h of incubation with test compounds, 20 μL of 3-(4,5-dimethyl thiazol-2-yl)-2,5-diphenyltetrazolium bromide (MTT) solution (5 mg/mL in PBS) were added to each well and incubated further for 2 h. Next, the supernatant was aspirated and the MTT formazan formed by metabolically viable cells was dissolved in 100 μL of isopropanol. The plates were mixed for 30 min, and the absorbance was measured at 600 nm on a plate reader (FLUOstar OPTIMA, BMG LabTech). All samples were in triplicate. The IC50 values were determined from dose-response curves by nonlinear regression using PRISM v5.00 (GraphPad Software Inc, La Jolla, Calif., USA).
(§3) The in vitro cytotoxicity of 1-20 were evaluated by MTT assays in a panel of prostate cancer cell lines, including LNCaP, MDA PCa 2b, 22Rv1, C4-2B and PC-3.

22Rv1 cells [2] = test system: 22Rv1 cells
Procedure: as §2, §3

C4-2B cells [3] = test system: C4-2B cells;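 further: cells treated with a dilution series for 72 h, then MTT added and absorbance read at 600 nm, IC50 fitted from dose-response curves by nonlinear regression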
PC-3 cells [4] = test system: PC-3 cells
LNCaP cells [5] = assay: MTT cell growth inhibition, LNCaP;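 further: MTT formazan absorbance at 600 nm read after 72 h of compound exposure, IC50 fitted by nonlinear regression of dose-response curves, samples run in triplicate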
DU145 cells = assay: IL-6 secretion, Human IL-6 ELISA; type: cell-based; details: DU-145 cells, 24 hr
PC-3 cells [6] = assay: MTT cell growth inhibition, PC-3
22Rv1 cells [7] = assay: MTT cell growth inhibition, 22Rv1; details: read-out: Cellular IC50 (μM) 22Rv1; Table 9; MTT
Procedure: as §2, §3

C4-2B cells [8] = assay: MTT cell growth inhibition, C4-2B; details: read-out: Cellular IC50 (μM) C4-2B, Table 9;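 further: cells treated with a dilution series for 72 h, then MTT added and absorbance read at 600 nm, IC50 fitted from dose-response curves by nonlinear regression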
MDA PCa 2b cells [9] = assay: MTT cell growth inhibition, MDA PCa 2b; details: MTT;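 further: MDA PCa 2b prostate cancer cells in BRFF-HPC1 with 20% FBS, exposed to compounds for 72 h, viable-cell MTT formazan read as absorbance at 600 nm, 0.5% DMSO vehicle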
Procedure: as §2, §3

Bic-LNCaP cells = assay: MTT cellular growth, Bic-LNCaP; type: cell-based; details: FIG. 10
LNCaP cells [10] = details: human, 72 h
[11] = read-out: Cellular IC50 (μM) PC-3, Table 9
[12] = read-out: Cellular IC50 (μM) LNCaP, Table 9

- suppression of DHT-induced transactivation of wild-type AR (wild-type human AR): modest antiandrogenic activity
- IC50 (MDA PCa 2b cells [1]): 2600 nM
- IC50 (22Rv1 cells [2]): 1700 nM
- IC50 (C4-2B cells [3]): 1400 nM
- IC50 (PC-3 cells [4]): 3500 nM
- IC50 (LNCaP cells [5]; read-out: IC50 in LNCaP cells): 0.74 µM
Compound: CC1=C(/C=C/C(=O)/C=C/c2cccc(C(F)(F)F)c2)C(C)(C)CCC1O (racemic) [Compound B25]
- effect in MCF-7 breast cancer cell line (MCF-7 cells): effective
- IC50 (MCF-7 cells): 5.2 µM
- effect in MDA-MB-231 breast cancer cell line (MDA-MB-231 cells): effective
- IC50 (MDA-MB-231 cells): 4.4 µM
- effect in H-1975 lung cancer cell line (H-1975 cells): effective
- IC50 (H-1975 cells): 6.3 µM

Compound: CC1(C)CCC(O)C=C1/C=C/C(=O)/C=C/c1csc2ccccc12 (stereo not drawn) [Compound B92]
- Antiandrogenic activity evaluated by luciferase assay in PC-3 cells WT (wild-type human AR): ++
- secretion of IL-6 (DU145 cells): suppress secretion
- IC50 (PC-3 cells [6]; [11]): 3.3 µM
- IC50 (PC-3 cells [6]; read-out: Cytotoxicity in prostate cancer cell lines IC50 (μM), PC-3, Part D table, 72 hours, I.A. = Inactive): 2 µM
- IC50 (LNCaP cells [5]; [12]): 1.1 µM
- IC50 (22Rv1 cells [7]): 1.5 µM
- IC50 (C4-2B cells [8]): 1.1 µM
- IC50 (MDA PCa 2b cells [9]; read-out: Cytotoxicity in prostate cancer cell lines IC50 (μM), PCa-2b, Part D table, 72 hours): 0.87 µM

- suppression of DHT-induced transactivation of wild-type AR (wild-type human AR): effective
- Antiandrogenic activity evaluated by luciferase assay in PC-3 cells WT (wild-type human AR): ++
- IC50 (LNCaP cells [10]): 630 nM
- IC50 (MDA PCa 2b cells [1]; human, 72 h): 1300 nM
- IC50 (22Rv1 cells [2]; human, 72 h): 1100 nM
- IC50 (C4-2B cells [3]; human, 72 h): 870 nM
- IC50 (PC-3 cells [4]; human, 72 h): 2200 nM
- IC50 (PC-3 cells [6]; [11]): 2.3 µM
- IC50 (LNCaP cells [5]; [12]): 0.63 µM
- IC50 (22Rv1 cells [7]): 1.2 µM
Compound: CC1(C)CCC(O)C=C1/C=C/C(=O)/C=C/c1cnc2ccccc2c1 (stereo not drawn) [Compound B95]
- effect in MCF-7 breast cancer cell line (MCF-7 cells): effective
- IC50 (MCF-7 cells; Homo sapiens, MCF7): 5.5 µM
- effect in MDA-MB-231 breast cancer cell line (MDA-MB-231 cells): effective
- IC50 (MDA-MB-231 cells; Homo sapiens, MDA-MB-231): 3.6 µM
- effect in H-1975 lung cancer cell line (H-1975 cells): effective
- IC50 (H-1975 cells; Homo sapiens, NCI-H1975): 4.8 µM
- activity against Bic-LNCaP cells (Bic-LNCaP cells): remains active
- IC50 (C4-2B cells [8]): 1.4 µM
- IC50 (MDA PCa 2b cells [9]; read-out: Cellular IC50 (μM) PCa 2b, Table 9): 1.3 µM
